Assay [1] deals with acetylcholinesterase (AChE). Put plainly: colorimetric kinetic kit assay, […] nm. Type of assay: biochemical. To be noted: room temperature, 10-15 min preincubation.
The target in assay [2] is β-secretase (BACE-1) (Homo sapiens, UniProt P56817). Put plainly: fluorescence kit assay, slope based. Type of assay: biochemical.

The structures appear in SMILES notation.

β-secretase (BACE-1), sequence (P56817 46-501): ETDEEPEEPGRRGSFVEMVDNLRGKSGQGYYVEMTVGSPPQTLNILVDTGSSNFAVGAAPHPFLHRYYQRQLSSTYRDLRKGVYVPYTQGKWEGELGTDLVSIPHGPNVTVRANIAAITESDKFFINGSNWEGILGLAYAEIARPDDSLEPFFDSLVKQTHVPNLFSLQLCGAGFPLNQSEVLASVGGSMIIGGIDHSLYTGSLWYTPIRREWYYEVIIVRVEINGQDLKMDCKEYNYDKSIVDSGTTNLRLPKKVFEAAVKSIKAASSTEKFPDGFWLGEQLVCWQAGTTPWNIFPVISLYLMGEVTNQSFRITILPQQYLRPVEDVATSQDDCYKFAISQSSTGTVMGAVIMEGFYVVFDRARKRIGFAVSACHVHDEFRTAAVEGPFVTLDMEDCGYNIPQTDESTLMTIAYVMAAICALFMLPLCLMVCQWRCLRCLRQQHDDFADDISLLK

Turning to `C[N+](C)(CCl)CCc1ccc(O)cc1` [compound 5, N-chloromethyl hordenine], the “AChE (μg mL^-1 ± SD)” value in assay [1] was found to be 0.076 ± 0.002 µg/mL. For the same compound, the IC50 (usually the concentration needed to halve the response being measured) in assay [2] was 1250 nM.

`CC1=CC(=O)CC(C)(C)[C@@]1(O)/C=C/[C@@H](C)O[C@@H]1O[C@H](CO)[C@@H](O)[C@H](O)[C@H]1O` [compound 4, vomifoliol-9-O-β-D-glucopyranoside]: the “AChE (μg mL^-1 ± SD)” value in assay [1] was found to be 0.452 ± 0.014 µg/mL. For the same compound, the IC50 in assay [2] is 171 nM.

`CC(=O)[N+](C)(CCl)CCc1ccc(O)cc1` (centres unmarked) [compound 7, N-acetyl-N-chloromethyl-N-methyl tyramine]: in assay [1], the “AChE (μg mL^-1 ± SD)” value is 0.607 ± 0.02 µg/mL. This compound had an IC50 in assay [2] of 494 nM.

As to `O=C1C[C@@H](c2ccc(O)cc2)Oc2cc(O)cc(O)c21` [compound 1, naringenin], in assay [1], the “AChE (μg mL^-1 ± SD)” value was 0.212 ± 0.007 µg/mL. Further, the IC50 in assay [2] is 1550 nM.

Turning to `COc1c(-c2ccc(O)cc2)oc2cc(O)cc(O)c2c1=O` [compound 3, isokaempferide], the “AChE (μg mL^-1 ± SD)” value in assay [1] was found to be 0.483 ± 0.015 µg/mL. Further, the IC50 in assay [2] was 446 nM.

Turning to `CC(=O)[N+](C)(C)CCc1ccc(O)cc1` [compound 6, N-acetyl hordenine], the “AChE (μg mL^-1 ± SD)” value in assay [1] is 2.255 ± 0.074 µg/mL. This compound also had an IC50 in assay [2] of 8210 nM.

Regarding `O=c1c(O)c(-c2ccc(O)cc2)oc2cc(O)cc(O)c12` [compound 2, 3,4′,5,7-tetrahydroxyflavone], in assay [1], the “AChE (μg mL^-1 ± SD)” value stood at 1.099 ± 0.03 µg/mL. The same compound gave an IC50 in assay [2] of 25100 nM.

The record behind these values is article PMC12690644 (RSC Advances, 2025).
